Results: US9790169B2, “IDO inhibitors” (BRISTOL-MYERS SQUIBB COMPANY, priority 2015, dated 2017)

The compounds below were run against human IDO1 (Homo sapiens, UniProt P14902) (assay: Assessment of human IDO-1 inhibitory activity in Hela cells (Interferon-gamma stimulated HeLa cells, Ehrlich reagent, absorbance 490 nm)). Conditions: Hela Human IDO-1 cellular assay.
Assay type: cell-based
Parameters: endogenous in cells; host or cells: HeLa cells stimulated with interferon-gamma
Outline: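 HeLa cells pre-incubated with compound 1 h at 37 °C, then stimulated with human IFN-γ (10 ng/ml final) or murine IFN-γ (5 ng/ml final) for 18 h. Kynurenine read with Ehrlich reagent at 490 nm after TCA (3%) and 50 °C treatment; IC50 normalized to unstimulated (100%) and IFN-γ-only (0%) wells.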

Chain of human IDO1 (P14902 whole entry): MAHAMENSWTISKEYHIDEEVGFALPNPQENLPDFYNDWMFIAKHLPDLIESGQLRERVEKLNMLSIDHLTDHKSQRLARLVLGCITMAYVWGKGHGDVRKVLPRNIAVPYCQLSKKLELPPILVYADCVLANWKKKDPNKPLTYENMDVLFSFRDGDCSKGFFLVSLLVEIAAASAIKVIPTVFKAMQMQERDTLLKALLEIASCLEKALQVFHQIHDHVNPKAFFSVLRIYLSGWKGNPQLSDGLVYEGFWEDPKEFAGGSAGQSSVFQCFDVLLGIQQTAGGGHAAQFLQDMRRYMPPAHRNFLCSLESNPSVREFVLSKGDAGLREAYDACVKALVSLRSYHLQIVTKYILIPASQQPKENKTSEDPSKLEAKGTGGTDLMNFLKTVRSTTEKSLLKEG

Structure (SMILES)	IC50 [µM]
CCN(c1ccc(C(CC)(CC)CC(=O)O)cc1NC(=O)Nc1ccc(C)cc1)C1CCOCC1 [Example 30, 3-Ethyl-3-(4-(ethyl(tetrahydro-2H-pyran-4-yl)amino)-3-(3-(p-tolyl)ureido)phenyl)pentanoic acid]	< 0.05
CCN(c1ccc(C(CC)(CC)CC(=O)O)cc1NC(=O)Nc1ccc(C#N)cc1)C1CCOCC1 [Example 31, 3-(3-(3-(4-cyanophenyl)ureido)-4-(ethyl(tetrahydro-2H-pyran-4-yl)amino)phenyl)-3-ethylpentanoic acid]	< 0.05
CCN(c1ccc(C(CC)(CC)CC(=O)O)cc1NC(=O)Nc1ccc(Cl)cc1F)C1CCOCC1 [Example 32, 3-(3-(3-(4-chloro-2-fluorophenyl)ureido)-4-(ethyl(tetrahydro-2H-pyran-4-yl)amino)phenyl)-3-ethylpentanoic acid]	< 0.005
CC(C)CN(CC(C)C)c1ccc(C(C)(C)CC(=O)O)cc1Nc1ccc(Cl)cc1 [Example 145, 3-(3-((4-Chlorophenyl)amino)-4-(diisobutylamino)phenyl)-3-methylbutanoic acid]	< 0.005
CCOc1ncc(Nc2cc(C3(CC(=O)O)CCOCC3)ccc2N(CC)C2CCOCC2)cn1 [Example 153, 2-(4-(3-((2-Ethoxypyrimidin-5-yl)amino)-4-(ethyl(tetrahydro-2H-pyran-4-yl)amino)phenyl)tetrahydro-2H-pyran-4-yl)acetic acid]	> 0.05
CCN(c1ccc(C2(CC(=O)O)CCOCC2)cc1Nc1ccc(C#N)cc1)C1CCOCC1 [Example 154, 2-(4-(3-((4-cyanophenyl)amino)-4-(ethyl (tetrahydro-2H-pyran-4-yl)amino)phenyl)tetrahydro-2H-pyran-4-yl)acetic acid]	< 0.05
CCN(c1ccc(C2(CC(=O)O)CCOCC2)cc1Nc1ccc(Cl)cc1)C1CCOCC1 [Example 155, 2-(4-(3-((4-chlorophenyl)amino)-4-(ethyl(tetrahydro-2H-pyran-4-yl)amino)phenyl)tetrahydro-2H-pyran-4-yl)acetic acid]	< 0.005
CCN(c1ccc(C2(CC(=O)O)CCOCC2)cc1Nc1ccc(OC)nc1)C1CCOCC1 [Example 156, 2-(4-(4-(ethyl(tetrahydro-2H-pyran-4-yl)amino)-3-((6-methoxypyridin-3-yl)amino)phenyl)tetrahydro-2H-pyran-4-yl)acetic acid]	> 0.05
CCN(c1ccc(C2(CC(=O)O)CCOCC2)cc1NC(=O)Nc1ccc(C)cc1)C1CCOCC1 [Example 157, 2-(4-(4-(Ethyl(tetrahydro-2H-pyran-4-yl)amino)-3-(3-(p-tolyl)ureido)phenyl)tetrahydro-2H-pyran-4-yl)acetic acid]	> 0.05
CCN(c1ccc(C(C)(C)CC(=O)O)cc1Nc1ccc(C#N)cc1)C1CCS(=O)(=O)CC1 [Example 178, 3-(3-((4-cyanophenyl)amino)-4-((1,1-dioxidotetrahydro-2H-thiopyran-4-yl)(ethyl)amino)phenyl)-3-melhylbutanoic acid]	< 0.05
CCN(c1ccc(C(C)(C)CC(=O)O)cc1Nc1ccc2c(c1)OC(F)(F)O2)C1CCS(=O)(=O)CC1 [Example 179, 3-(3-((2,2-difluorobenzo[d][1,3]dioxol-5-yl)amino)-4-((1,1-dioxidotetrahydro-2H-thiopyran-4-yl)(ethyl)amino)phenyl)-3-methylbutanoic acid]	< 0.005
CCN(c1ccc(C(C)(C)CC(=O)O)cc1Nc1ccc(Cl)cc1)C1CCS(=O)(=O)CC1 [Example 180, 3-(3-((4-chlorophenyl)amino)-4-((1,1-dioxidotetrahydro-2H-thiopyran-4-yl)(ethyl)amino)phenyl)-3-methylbutanoic acid]	< 0.005
CCCN(c1ccc(C(C)(C)CC(=O)O)cc1Nc1ccc(C#N)cc1)C1CCS(=O)(=O)CC1 [Example 187, 3-(3-((4-Cyanophenyl)amino)-4-((1,1-dioxidotetrahydro-2H-thiopyran-4-yl)(propyl)amino)phenyl)-3-methylbutanoic acid]	< 0.05
CCCN(c1ccc(C(C)(C)CC(=O)O)cc1Nc1cnc(OCC)nc1)C1CCS(=O)(=O)CC1 [Example 188, 3-(4-((1,1-dioxidotetrahydro-2H-thiopyran-4-yl)(propyl)amino)-3-((2-ethoxypyrimidin-5-yl)amino)phenyl)-3-methylbutanoic acid]	> 0.05
CCCN(c1ccc(C(C)(C)CC(=O)O)cc1Nc1cnc(OC)nc1)C1CCS(=O)(=O)CC1 [Example 189, 3-(4-((1,1-dioxidotetrahydro-2H-thiopyran-4-yl)(propyl)amino)-3-((2-methoxypyrimidin-5-yl)amino)phenyl)-3-methylbutanoic acid]	> 0.05
CCCN(c1ccc(C(C)(C)CC(=O)O)cc1NC(=O)Nc1ccc(C#N)cc1)C1CCS(=O)(=O)CC1 [Example 190, 3-(3-(3-(4-Cyanophenyl)ureido)-4-((1,1-dioxidotetrahydro-2H-thiopyran-4-yl)(propyl)amino)phenyl)-3-methylbutanoic acid]	> 0.05
CCN(c1ccc([C@H](COC)CC(=O)O)cc1Nc1ccc(C(F)(F)F)cc1)C1CCOCC1 [Example 401]	< 0.005
CCOc1ncc(Nc2cc([C@H](CC(=O)O)C(F)(F)F)ccc2N(CC)C2CCOCC2)cn1 [Example 598, (S)-3-(3-((2-Ethoxypyrimidin-5-yl)amino)-4-(ethyl(tetrahydro-2H-pyran-4-yl)amino)phenyl)-4,4,4-trifluorobutanoic acid]	< 0.05
CCN(c1ccc([C@H](CC(=O)O)C(F)(F)F)cc1Nc1cnc(OC)nc1)C1CCOCC1 [Example 599, (S)-3-(4-(ethyl(tetrahydro-2H-pyran-4-yl)amino)-3-((2-methoxypyrimidin-5-yl)amino)phenyl)-4,4,4-trifluorobutanoic acid]	< 0.05
CCOc1ncc(Nc2cc([C@@H](CC(=O)O)C(F)(F)F)ccc2N(CC)C2CCOCC2)cn1 [Example 600, (R)-3-(3-((2-Ethoxypyrimidin-5-yl)amino)-4-(ethyl(tetrahydro-2H-pyran-4-yl)amino)phenyl)-4,4,4-trifluorobutanoic acid]	< 0.005
CCN(c1ccc([C@H](CNS(=O)(=O)C(F)(F)F)COC)cc1Nc1ccc(C#N)cc1)C1CCOCC1 [Example 1342, (R)-N-(2-(3-((4-cyanophenyl)amino)-4-(ethyl(tetrahydro-2H-pyran-4-yl)amino)phenyl)-3-methoxypropyl)-1,1,1-trifluoromethanesulfonamide]	< 0.05
CCOc1ncc(Nc2cc([C@@H](CC)CC(=O)O)ccc2N2C3CCC2CC(c2ccc(F)cc2)C3)cn1 (stereo partly drawn) [Example 1360, (S)-3-(3-((2-Ethoxypyrimidin-5-yl)amino)-4-(3-(4-fluorophenyl)-8-azabicyclo[3.2.1]octan-8-yl)phenyl)pentanoic acid]	< 0.005

More lines, now with the values ahead:

IC50 [µM]	Structure (SMILES)
< 0.05	CCOc1ncc(Nc2cc([C@H](CC)CNS(=O)(=O)CC)ccc2N(CC)C2CCOCC2)cn1 [Example 1325, (S)-N-(2-(3-((2-Ethoxypyrimidin-5-yl)amino)-4-(ethyl(tetrahydro-2H-pyran-4-yl)amino)phenyl)butyl)ethanesulfonamide]
> 0.05	CCOc1ncc(Nc2cc([C@H](CC)CNS(=O)(=O)c3c(C)noc3C)ccc2N(CC)C2CCOCC2)cn1 [Example 1328, (S)-N-(2-(3-((2-ethoxypyrimidin-5-yl)amino)-4-(ethyl(tetrahydro-2H-pyran-4-yl)amino)phenyl)butyl)-3,5-dimethylisoxazole-4-sulfonamide]
< 0.005	CCOc1ncc(Nc2cc([C@H](CC)CNS(=O)(=O)C(F)(F)F)ccc2N(CC)C2CCOCC2)cn1 [Example 1329, (S)-N-(2-(3-((2-ethoxypyrimidin-5-yl)amino)-4-(ethyl(tetrahydro-2H-pyran-4-yl)amino)phenyl)butyl)-1,1,1-trifluoromethanesulfonamide]
> 0.05	CCOc1ncc(Nc2cc([C@H](CC)CC(N)=O)ccc2N(CC)C2CCOCC2)cn1 [Example 1332, (R)-3-(3-((2-Ethoxypyrimidin-5-yl)amino)-4-(ethyl(tetrahydro-2H-pyran-4-yl)amino)phenyl)pentanamide]
> 0.05	CCOc1ncc(Nc2cc([C@H](CC)CC#N)ccc2N(CC)C2CCOCC2)cn1 [Example 1333, (R)-3-(3-((2-Ethoxypyrimidin-5-yl)amino)-4-(ethyl(tetrahydro-2H-pyran-4-yl)amino)phenyl)pentanenitrile]
> 0.05	CCOc1ncc(Nc2cc([C@H](CC)Cc3cnco3)ccc2N(CC)C2CCOCC2)cn1 [Example 1335, (R)-N2-(2-Ethoxypyrimidin-5-yl)-N1-ethyl-4-(1-(oxazol-5-yl)butan-2-yl)-N1-(tetrahydro-2H-pyran-4-yl)benzene-1,2-diamine]
< 0.05	CCOc1ncc(Nc2cc([C@H](CC)Cc3ncno3)ccc2N(CC)C2CCOCC2)cn1 [Example 1337, (R)-4-(1-(1,2,4-Oxadiazol-5-yl)butan-2-yl)-N2-(2-ethoxypyrimidin-5-yl)-N1-ethyl-N1-(tetrahydro-2H-pyran-4-yl)benzene-1,2-diamine]
< 0.05	CCOc1ncc(Nc2cc([C@H](CC)Cc3nnc[nH]3)ccc2N(CC)C2CCOCC2)cn1 [Example 1338, (R)-4-(1-(4H-1,2,4-Triazol-3-yl)butan-2-yl)-N2-(2-ethoxypyrimidin-5-yl)-N1-ethyl-N1-(tetrahydro-2H-pyran-4-yl)benzene-1,2-diamine]
< 0.005	CCOc1ncc(Nc2cc([C@H](CC)Cc3nnn[nH]3)ccc2N(CC)C2CCOCC2)cn1 [Example 1339, (R)-4-(1-(1H-Tetrazol-5-yl)butan-2-yl)-N2-(2-ethoxypyrimidin-5-yl)-N1-ethyl-N1-(tetrahydro-2H-pyran-4-yl)benzene-1,2-diamine]
< 0.05	CCOc1ncc(Nc2cc([C@H](CC)CC(=O)Nc3ncco3)ccc2N(CC)C2CCOCC2)cn1 [Example 1346, (R)-3-(3-((2-Ethoxypyrimidin-5-yl)amino)-4-(ethyl(tetrahydro-2H-pyran-4-yl)amino)phenyl)-N-(oxazol-2-yl)pentanamide]
